Measured values taken from patent publication US8410161B2, “Thioxanthone ring system derivatives” (National Defense Medical Center, priority 2010, dated 2013).

Assays:
HS 578-T = experiment: NCI in vitro DTP human cell line screen, HS 578-T; format: cell-based; conditions: Breast Cancer, 1.00E−5 Molar
Method: (§1) Then, a cell toxicity assay of the cancer lines made by National Cancer Institute will be discussed as follows. The cell toxicity assay is performed by choosing ten compounds (existing certification numbers) from the 59 compounds disclosed in the present invention first.

RPMI-8226 = experiment: NCI in vitro DTP human cell line screen, RPMI-8226; format: cell-based; conditions: Leukemia, 1.00E−5 Molar
Method: as §1

SN12C = experiment: NCI in vitro DTP human cell line screen, SN12C; format: cell-based; conditions: Renal Cancer, 1.00E−5 Molar
Method: as §1

U251 = experiment: NCI in vitro DTP human cell line screen, U251; format: cell-based; conditions: CNS Cancer, 1.00E−5 Molar
Method: as §1

IGROV1 = experiment: NCI in vitro DTP human cell line screen, IGROV1; format: cell-based; conditions: Ovarian Cancer, 1.00E−5 Molar
Method: as §1

OVCAR-8 = experiment: NCI in vitro DTP human cell line screen, OVCAR-8; format: cell-based; conditions: Ovarian Cancer, 1.00E−5 Molar
Method: as §1

HCT-15 = experiment: NCI in vitro DTP human cell line screen, HCT-15; format: cell-based; conditions: Colon Cancer, 1.00E−5 Molar
Method: as §1

PC-3 = experiment: NCI in vitro DTP human cell line screen, PC-3; format: cell-based; conditions: Prostate Cancer, 1.00E−5 Molar
Method: as §1

NCI/ADR-RES = experiment: NCI in vitro DTP human cell line screen, NCI/ADR-RES; format: cell-based; conditions: Ovarian Cancer, 1.00E−5 Molar
Method: as §1

OVCAR-3 = experiment: NCI in vitro DTP human cell line screen, OVCAR-3; format: cell-based; conditions: Ovarian Cancer, 1.00E−5 Molar
Method: as §1

MDA-MB-231/ATCC = experiment: NCI in vitro DTP human cell line screen, MDA-MB-231/ATCC; format: cell-based; conditions: Breast Cancer, 1.00E−5 Molar
Method: as §1

MDA-MB-435 = experiment: NCI in vitro DTP human cell line screen, MDA-MB-435; format: cell-based; conditions: Melanoma, 1.00E−5 Molar
Method: as §1

ACHN = experiment: NCI in vitro DTP human cell line screen, ACHN; format: cell-based; conditions: Renal Cancer, 1.00E−5 Molar
Method: as §1

NCI-H522 = experiment: NCI in vitro DTP human cell line screen, NCI-H522; format: cell-based; conditions: Non-Small Cell Lung Cancer, 1.00E−5 Molar
Method: as §1

K562 = experiment: NCI in vitro DTP human cell line screen, K562; format: cell-based; conditions: Leukemia, 1.00E−5 Molar
Method: as §1

T-47D = experiment: NCI in vitro DTP human cell line screen, T-47D; format: cell-based; conditions: Breast Cancer, 1.00E−5 Molar
Method: as §1

OVCAR-4 = experiment: NCI in vitro DTP human cell line screen, OVCAR-4; format: cell-based; conditions: Ovarian Cancer, 1.00E−5 Molar
Method: as §1

BT-549 = experiment: NCI in vitro DTP human cell line screen, BT-549; format: cell-based; conditions: Breast Cancer, 1.00E−5 Molar
Method: as §1

TK-10 = experiment: NCI in vitro DTP human cell line screen, TK-10; format: cell-based; conditions: Renal Cancer, 1.00E−5 Molar
Method: as §1

NCI-H460 = experiment: NCI in vitro DTP human cell line screen, NCI-H460; format: cell-based; conditions: Non-Small Cell Lung Cancer, 1.00E−5 Molar
Method: as §1

SNB-19 = experiment: NCI in vitro DTP human cell line screen, SNB-19; format: cell-based; conditions: CNS Cancer, 1.00E−5 Molar
Method: as §1

COLO 205 = experiment: NCI in vitro DTP human cell line screen, COLO 205; format: cell-based; conditions: Colon Cancer, 1.00E−5 Molar
Method: as §1

MALME-3M = experiment: NCI in vitro DTP human cell line screen, MALME-3M; format: cell-based; conditions: Melanoma, 1.00E−5 Molar
Method: as §1

HL-60(TB) = experiment: NCI in vitro DTP human cell line screen, HL-60(TB); format: cell-based; conditions: Leukemia, 1.00E−5 Molar
Method: as §1

NCI-H226 = experiment: NCI in vitro DTP human cell line screen, NCI-H226; format: cell-based; conditions: Non-Small Cell Lung Cancer, 1.00E−5 Molar
Method: as §1

CAKI-1 = experiment: NCI in vitro DTP human cell line screen, CAKI-1; format: cell-based; conditions: Renal Cancer, 1.00E−5 Molar
Method: as §1

MCF7 = experiment: NCI in vitro DTP human cell line screen, MCF7; format: cell-based; conditions: Breast Cancer, 1.00E−5 Molar
Method: as §1

RXF 393 = experiment: NCI in vitro DTP human cell line screen, RXF 393; format: cell-based; conditions: Renal Cancer, 1.00E−5 Molar
Method: as §1

HCC-2998 = experiment: NCI in vitro DTP human cell line screen, HCC-2998; format: cell-based; conditions: Colon Cancer, 1.00E−5 Molar
Method: as §1

LOX IMVI = experiment: NCI in vitro DTP human cell line screen, LOX IMVI; format: cell-based; conditions: Melanoma, 1.00E−5 Molar
Method: as §1

UO-31 = experiment: NCI in vitro DTP human cell line screen, UO-31; format: cell-based; conditions: Renal Cancer, 1.00E−5 Molar
Method: as §1

M14 = experiment: NCI in vitro DTP human cell line screen, M14; format: cell-based; conditions: Melanoma, 1.00E−5 Molar
Method: as §1

MDA-MB-468 = experiment: NCI in vitro DTP human cell line screen, MDA-MB-468; format: cell-based; conditions: Breast Cancer, 1.00E−5 Molar
Method: as §1

786-0 = experiment: NCI in vitro DTP human cell line screen, 786-0; format: cell-based; conditions: Renal Cancer, 1.00E−5 Molar
Method: as §1

SK-MEL-5 = experiment: NCI in vitro DTP human cell line screen, SK-MEL-5; format: cell-based; conditions: Melanoma, 1.00E−5 Molar
Method: as §1

NCI-H322M = experiment: NCI in vitro DTP human cell line screen, NCI-H322M; format: cell-based; conditions: Non-Small Cell Lung Cancer, 1.00E−5 Molar
Method: as §1

EKVX = experiment: NCI in vitro DTP human cell line screen, EKVX; format: cell-based; conditions: Non-Small Cell Lung Cancer, 1.00E−5 Molar
Method: as §1

UACC-62 = experiment: NCI in vitro DTP human cell line screen, UACC-62; format: cell-based; conditions: Melanoma, 1.00E−5 Molar
Method: as §1

DU145 = experiment: NCI in vitro DTP human cell line screen, DU145; format: cell-based; conditions: Prostate Cancer, 1.00E−5 Molar
Method: as §1

60 cancer lines = experiment: NCI cell toxicity assay of 60 cancer lines, whole panel summary; format: cell-based, human; conditions: mean over all cell lines; 1.00E−5 Molar
Method: as §1

HT29 = experiment: NCI in vitro DTP human cell line screen, HT29; format: cell-based; conditions: Colon Cancer, 1.00E−5 Molar
Method: as §1

SW-620 = experiment: NCI in vitro DTP human cell line screen, SW-620; format: cell-based; conditions: Colon Cancer, 1.00E−5 Molar
Method: as §1

SK-MEL-2 = experiment: NCI in vitro DTP human cell line screen, SK-MEL-2; format: cell-based; conditions: Melanoma, 1.00E−5 Molar
Method: as §1

UACC-257 = experiment: NCI in vitro DTP human cell line screen, UACC-257; format: cell-based; conditions: Melanoma, 1.00E−5 Molar
Method: as §1

NCI-H23 = experiment: NCI in vitro DTP human cell line screen, NCI-H23; format: cell-based; conditions: Non-Small Cell Lung Cancer, 1.00E−5 Molar
Method: as §1

SF-539 = experiment: NCI in vitro DTP human cell line screen, SF-539; format: cell-based; conditions: CNS Cancer, 1.00E−5 Molar
Method: as §1

SK-MEL-28 = experiment: NCI in vitro DTP human cell line screen, SK-MEL-28; format: cell-based; conditions: Melanoma, 1.00E−5 Molar
Method: as §1

A3 cell lines = experiment: MTT assay, A3 cell lines (lung cancer stem cell); format: cell-based
From the text: Please to FIG. 4B, various cell viabilities of the A3 cell lines can be obtained through the MTT assay and illustrated in FIG. 4B while the compounds No. 1˜30 are used to treat A3 cell lines, wherein A3 cell lines are lung cancer stem cell.

SK-OV-3 = experiment: NCI in vitro DTP human cell line screen, SK-OV-3; format: cell-based; conditions: Ovarian Cancer, 1.00E−5 Molar
Method: as §1

OVCAR-5 = experiment: NCI in vitro DTP human cell line screen, OVCAR-5; format: cell-based; conditions: Ovarian Cancer, 1.00E−5 Molar
Method: as §1

SF-268 = experiment: NCI in vitro DTP human cell line screen, SF-268; format: cell-based; conditions: CNS Cancer, 1.00E−5 Molar
Method: as §1

KM12 = experiment: NCI in vitro DTP human cell line screen, KM12; format: cell-based; conditions: Colon Cancer, 1.00E−5 Molar
Method: as §1

HCT-116 = experiment: NCI in vitro DTP human cell line screen, HCT-116; format: cell-based; conditions: Colon Cancer, 1.00E−5 Molar
Method: as §1

[1] = MTT assay, HEL299 fibroblast; format: cell-based; conditions: human
From the text: Please refer to FIG. 4C, various cell viabilities of the HEL299 cell lines can be obtained through the MTT assay while the compounds No. 1˜30 are used to treat HEL299 cell lines, wherein HEL299 cell lines are fibroblast.

SR = experiment: NCI in vitro DTP human cell line screen, SR; format: cell-based; conditions: Leukemia, 1.00E−5 Molar
Method: as §1

SF-295 = experiment: NCI in vitro DTP human cell line screen, SF-295; format: cell-based; conditions: CNS Cancer, 1.00E−5 Molar
Method: as §1

MOLT-4 = experiment: NCI in vitro DTP human cell line screen, MOLT-4; format: cell-based; conditions: Leukemia, 1.00E−5 Molar
Method: as §1

SNB-75 = experiment: NCI in vitro DTP human cell line screen, SNB-75; format: cell-based; conditions: CNS Cancer, 1.00E−5 Molar
Method: as §1

A control cell lines = experiment: MTT assay, A control cell lines (lung cancer cell); format: cell-based
From the text: Please refer to Table 1 and FIGS. 4A-4C. According to a MTT assay (Table 1), various cell viabilities of the A control cell lines can be obtained and illustrated in FIG. 4A while the compounds No. 2˜30 are used to treat A control cell lines, wherein A control cell lines are lung cancer cell.

SMILES: Cc1cc(C)cc(Sc2ccc3c(=O)c4ccccc4sc3c2Cl)c1 [No. 14, 4-Chloro-3-(3,5-dimethylphenylthio)-9H-thioxanthen-9-one]
- Growth Percent (HS 578-T): 103.67%
- Growth Percent (RPMI-8226): 101.54%
- Growth Percent (SN12C): 101.79%
- Growth Percent (U251): 95.50%
- Growth Percent (IGROV1): 100.06%
- Growth Percent (OVCAR-8): 97.95%
- Growth Percent (HCT-15): 97.09%
- Growth Percent (PC-3): 97.92%
- Growth Percent (NCI/ADR-RES): 101.13%
- Growth Percent (OVCAR-3): 121.13%
- Growth Percent (MDA-MB-231/ATCC): 106.25%
- Growth Percent (MDA-MB-435): 99.38%
- Growth Percent (ACHN): 98.35%
- Growth Percent (NCI-H522): 91.47%
- Growth Percent (K562): 100.94%
- Growth Percent (T-47D): 100.87%
- Growth Percent (OVCAR-4): 101.64%
- Growth Percent (BT-549): 105.50%
- Growth Percent (TK-10): 103.30%
- Growth Percent (NCI-H460): 105.72%
- Growth Percent (SNB-19): 108.53%
- Growth Percent (COLO 205): 108.10%
- Growth Percent (MALME-3M): 102.39%
- Growth Percent (HL-60(TB)): 99.82%
- Growth Percent (NCI-H226): 97.38%
- Growth Percent (CAKI-1): 90.10%
- Growth Percent (MCF7): 94.94%
- Growth Percent (RXF 393): 114.27%
- Growth Percent (HCC-2998): 101.80%
- Growth Percent (LOX IMVI): 96.06%
- Growth Percent (UO-31): 87.22%
- Growth Percent (M14): 107.60%
- Growth Percent (MDA-MB-468): 110.63%
- Growth Percent (786-0): 110.62%
- Growth Percent (SK-MEL-5): 104.23%
- Growth Percent (NCI-H322M): 116.93%
- Growth Percent (EKVX): 96.66%
- Growth Percent (UACC-62): 96.19%
- Growth Percent (DU145): 118.42%
- Growth Percent, Mean (60 cancer lines): 101.73%
- Growth Percent (HT29): 95.28%
- Growth Percent (SW-620): 104.39%
- Growth Percent (SK-MEL-2): 100.30%
- Growth Percent (UACC-257): 89.26%
- Growth Percent (NCI-H23): 92.54%
- Growth Percent (SF-539): 105.19%
- Growth Percent (SK-MEL-28): 117.96%
- cell viabilities of A3 cell lines (MTT assay) (A3 cell lines): 113 ± 0.50%
- Growth Percent (SK-OV-3): 103.14%
- Growth Percent (OVCAR-5): 98.39%
- Growth Percent (SF-268): 104.92%
- Growth Percent (KM12): 109.61%
- Growth Percent (HCT-116): 93.28%
- viability [1]: 104 ± 9.21%
- Growth Percent (SR): 86.99%
- Growth Percent (SF-295): 116.45%
- Growth Percent (MOLT-4): 99.59%
- Growth Percent (SNB-75): 84.85%
- cell viabilities of A control cell lines (MTT assay) (A control cell lines): 112 ± 8.03%
